Data taken from publication doi:10.1101/265348v4, “Transcriptional Activation of Elephant Shark Mineralocorticoid Receptor by Corticosteroids, Progesterone and Spironolactone” (biorxiv, 2018).

Legend:
Assay in all cases: cell-based
Conditions in all cases: HEK293; relative to aldosterone = 100%; read-out: % relative to Aldo
[1] = target: T1, truncated zebrafish MR (GAL4-DBD-MR-LBD) (Danio rerio, UniProt A6YIH7); parameters: transcriptional activation of truncated GAL4-DBD-MR-LBD, luciferase reporter, concentration-response
T1 construct: gene nr3c2
T1 sequence (A6YIH7 669-970 limits assumed): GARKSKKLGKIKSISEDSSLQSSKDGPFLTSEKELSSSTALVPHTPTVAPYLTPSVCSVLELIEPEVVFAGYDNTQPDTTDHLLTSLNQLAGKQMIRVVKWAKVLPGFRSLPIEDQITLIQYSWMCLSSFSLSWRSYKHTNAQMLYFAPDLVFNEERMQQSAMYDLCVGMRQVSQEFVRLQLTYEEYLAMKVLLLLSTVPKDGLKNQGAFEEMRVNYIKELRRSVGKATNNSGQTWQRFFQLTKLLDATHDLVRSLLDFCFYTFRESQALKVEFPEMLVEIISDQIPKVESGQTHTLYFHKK
Source text: (§1) In parallel experiments, truncated elephant shark MR, lacking the A/B domain and containing a GAL4-DBD instead of the MR DBD, retained a strong response to all corticosteroids and to [compound left out] (Figure 3B). […] Concentration-dependent transcriptional activation of full-length and truncated elephant shark MR (shark MR) by 3-ketosteroids. Full length and truncated elephant shark MR (shark MR) were expressed in HEK293 cells with an MMTV-luciferase reporter. Full-length elephant shark MR (shark MR) (A) and (C) and truncated elephant shark MR (shark MR) (B) and (D). (A), (B) Aldo, cortisol, corticosterone, 11deoxycorticosterone or 11-deoxycortisol. (C), (D) Aldo, Prog, [compound left out] [compound left out], 17OH-Prog (17OH-P) or Spiron. […] Y-axis indicates fold-activation compared to the activity of control vector with vehicle (DMSO) alone as 1.  Figure 5. Concentration-dependent transcriptional activation of full-length and truncated chicken and zebrafish MR by progestins and Spironolactone. […] Full-length chicken MR (A) and zebrafish MR (B) and truncated chicken MR (C) and zebrafish MR (D). Y-axis indicates fold-activation compared to the activity of control vector with vehicle (DMSO) alone as 1.

[2] = target: T2, truncated elephant shark MR (GAL4-DBD-MR-LBD) (Callorhinchus milii, UniProt A0A4W3I5J5); parameters: transcriptional activation of truncated GAL4-DBD-MR-LBD, luciferase reporter, concentration-response
T2 construct: gene nr3c2
T2 sequence (A0A4W3I5J5 658-956 limits assumed): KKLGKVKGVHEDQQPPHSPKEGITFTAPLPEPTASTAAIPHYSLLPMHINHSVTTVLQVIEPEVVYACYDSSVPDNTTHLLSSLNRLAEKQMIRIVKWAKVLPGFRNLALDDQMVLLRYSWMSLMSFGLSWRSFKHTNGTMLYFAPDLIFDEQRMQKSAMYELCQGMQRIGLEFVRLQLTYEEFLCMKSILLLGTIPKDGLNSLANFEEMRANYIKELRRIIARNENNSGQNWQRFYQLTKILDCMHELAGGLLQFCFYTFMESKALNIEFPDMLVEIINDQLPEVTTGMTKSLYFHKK
Source text: as §1

full-length chicken MR = target: T3, full-length chicken MR (Gallus gallus, UniProt C1KB84); parameters: transcriptional activation of full-length MR, MMTV-luciferase reporter, concentration-response
T3 construct: gene NR3C2; full-length, expressed in HEK293 cells
T3 sequence (C1KB84 1-986): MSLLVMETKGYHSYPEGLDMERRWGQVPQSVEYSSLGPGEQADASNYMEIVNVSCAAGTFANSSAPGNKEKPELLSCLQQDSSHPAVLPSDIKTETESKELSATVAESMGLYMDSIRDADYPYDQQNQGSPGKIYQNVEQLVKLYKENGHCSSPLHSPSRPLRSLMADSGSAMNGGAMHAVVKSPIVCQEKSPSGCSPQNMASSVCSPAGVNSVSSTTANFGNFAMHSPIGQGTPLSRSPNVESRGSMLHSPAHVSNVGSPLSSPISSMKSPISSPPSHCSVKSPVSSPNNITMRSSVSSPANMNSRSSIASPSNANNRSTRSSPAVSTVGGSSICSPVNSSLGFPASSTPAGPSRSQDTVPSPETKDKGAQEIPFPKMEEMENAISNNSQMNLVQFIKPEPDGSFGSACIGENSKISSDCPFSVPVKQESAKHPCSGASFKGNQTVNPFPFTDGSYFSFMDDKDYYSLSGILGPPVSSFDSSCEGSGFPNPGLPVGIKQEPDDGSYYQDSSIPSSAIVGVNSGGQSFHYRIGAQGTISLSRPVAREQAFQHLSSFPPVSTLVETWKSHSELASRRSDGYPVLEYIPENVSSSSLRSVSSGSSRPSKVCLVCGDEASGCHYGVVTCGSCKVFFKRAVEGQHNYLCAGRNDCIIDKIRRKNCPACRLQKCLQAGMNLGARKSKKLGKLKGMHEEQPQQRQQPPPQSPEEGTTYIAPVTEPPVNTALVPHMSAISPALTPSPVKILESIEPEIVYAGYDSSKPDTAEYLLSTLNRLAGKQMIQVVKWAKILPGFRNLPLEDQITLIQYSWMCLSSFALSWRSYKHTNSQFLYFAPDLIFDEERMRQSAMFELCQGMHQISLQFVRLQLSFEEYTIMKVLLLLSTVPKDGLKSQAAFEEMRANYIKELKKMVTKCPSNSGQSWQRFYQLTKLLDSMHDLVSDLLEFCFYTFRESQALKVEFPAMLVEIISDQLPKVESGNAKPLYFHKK
Source text: (§2) Figure 3. Transcriptional activation of elephant shark MR by 3-ketosteroids. Full length and truncated elephant shark MR were expressed in HEK293 cells with an MMTV-luciferase reporter. A. Full length elephant shark MR. […] (19NP), 17OH-Prog, Spiron or vehicle alone (DMSO). B. Truncated elephant shark MR. […] (19NP), 17OH-Prog or Spiron or vehicle alone (DMSO). Results are expressed as means ± SEM, n=3. Y-axis indicates fold-activation compared to the activity of control vector with vehicle (DMSO) alone as 1.  Figure 4. Concentration-dependent transcriptional activation of full-length and truncated elephant shark MR (shark MR) by 3-ketosteroids. Full length and truncated elephant shark MR (shark MR) were expressed in HEK293 cells with an MMTV-luciferase reporter. Full-length elephant shark MR (shark MR) (A) and (C) and truncated elephant shark MR (shark MR) (B) and (D). (A), (B) Aldo, cortisol, corticosterone, 11deoxycorticosterone or 11-deoxycortisol. (C), (D) Aldo, Prog, [compound left out] [compound left out], 17OH-Prog (17OH-P) or Spiron. […] Y-axis indicates fold-activation compared to the activity of control vector with vehicle (DMSO) alone as 1.  Figure 5. Concentration-dependent transcriptional activation of full-length and truncated chicken and zebrafish MR by progestins and Spironolactone. […] Full-length chicken MR (A) and zebrafish MR (B) and truncated chicken MR (C) and zebrafish MR (D). Y-axis indicates fold-activation compared to the activity of control vector with vehicle (DMSO) alone as 1.

full-length zebrafish MR = target: T4, full-length zebrafish MR (Danio rerio, UniProt A6YIH7); parameters: transcriptional activation of full-length MR, MMTV-luciferase reporter, concentration-response
T4 construct: gene nr3c2; full-length, expressed in HEK293 cells
T4 sequence (A6YIH7 1-970): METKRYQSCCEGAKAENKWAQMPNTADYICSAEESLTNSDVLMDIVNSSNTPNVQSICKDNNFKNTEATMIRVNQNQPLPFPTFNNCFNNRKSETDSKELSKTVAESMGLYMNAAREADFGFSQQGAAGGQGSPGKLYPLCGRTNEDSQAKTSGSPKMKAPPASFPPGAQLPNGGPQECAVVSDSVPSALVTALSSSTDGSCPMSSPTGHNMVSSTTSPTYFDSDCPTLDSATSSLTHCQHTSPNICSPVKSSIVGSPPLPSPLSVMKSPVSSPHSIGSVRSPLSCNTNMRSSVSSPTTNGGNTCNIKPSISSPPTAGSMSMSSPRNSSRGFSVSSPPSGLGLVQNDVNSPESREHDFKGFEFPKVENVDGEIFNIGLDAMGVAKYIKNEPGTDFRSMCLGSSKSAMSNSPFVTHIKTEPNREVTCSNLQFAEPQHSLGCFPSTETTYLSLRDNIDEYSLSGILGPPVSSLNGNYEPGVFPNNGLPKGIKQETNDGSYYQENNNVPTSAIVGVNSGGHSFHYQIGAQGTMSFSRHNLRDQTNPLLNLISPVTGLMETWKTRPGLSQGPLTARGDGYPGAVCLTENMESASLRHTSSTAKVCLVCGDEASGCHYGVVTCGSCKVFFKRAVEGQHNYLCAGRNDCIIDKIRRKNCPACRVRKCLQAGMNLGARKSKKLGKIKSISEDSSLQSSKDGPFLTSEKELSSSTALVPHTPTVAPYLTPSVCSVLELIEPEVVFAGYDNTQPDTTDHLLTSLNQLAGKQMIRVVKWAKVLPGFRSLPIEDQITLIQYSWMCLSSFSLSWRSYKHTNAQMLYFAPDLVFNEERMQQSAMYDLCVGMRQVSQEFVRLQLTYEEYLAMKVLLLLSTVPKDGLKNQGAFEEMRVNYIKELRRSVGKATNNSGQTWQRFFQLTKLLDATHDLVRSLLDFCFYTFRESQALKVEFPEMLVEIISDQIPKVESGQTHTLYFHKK
Source text: as §2

[3] = target: T5, full-length elephant shark MR (Callorhinchus milii, UniProt A0A4W3I5J5); parameters: transcriptional activation of full-length MR, MMTV-luciferase reporter, concentration-response
T5 construct: gene nr3c2; full coding region in pcDNA3.1, expressed in HEK293 cells
T5 sequence (A0A4W3I5J5 1-956): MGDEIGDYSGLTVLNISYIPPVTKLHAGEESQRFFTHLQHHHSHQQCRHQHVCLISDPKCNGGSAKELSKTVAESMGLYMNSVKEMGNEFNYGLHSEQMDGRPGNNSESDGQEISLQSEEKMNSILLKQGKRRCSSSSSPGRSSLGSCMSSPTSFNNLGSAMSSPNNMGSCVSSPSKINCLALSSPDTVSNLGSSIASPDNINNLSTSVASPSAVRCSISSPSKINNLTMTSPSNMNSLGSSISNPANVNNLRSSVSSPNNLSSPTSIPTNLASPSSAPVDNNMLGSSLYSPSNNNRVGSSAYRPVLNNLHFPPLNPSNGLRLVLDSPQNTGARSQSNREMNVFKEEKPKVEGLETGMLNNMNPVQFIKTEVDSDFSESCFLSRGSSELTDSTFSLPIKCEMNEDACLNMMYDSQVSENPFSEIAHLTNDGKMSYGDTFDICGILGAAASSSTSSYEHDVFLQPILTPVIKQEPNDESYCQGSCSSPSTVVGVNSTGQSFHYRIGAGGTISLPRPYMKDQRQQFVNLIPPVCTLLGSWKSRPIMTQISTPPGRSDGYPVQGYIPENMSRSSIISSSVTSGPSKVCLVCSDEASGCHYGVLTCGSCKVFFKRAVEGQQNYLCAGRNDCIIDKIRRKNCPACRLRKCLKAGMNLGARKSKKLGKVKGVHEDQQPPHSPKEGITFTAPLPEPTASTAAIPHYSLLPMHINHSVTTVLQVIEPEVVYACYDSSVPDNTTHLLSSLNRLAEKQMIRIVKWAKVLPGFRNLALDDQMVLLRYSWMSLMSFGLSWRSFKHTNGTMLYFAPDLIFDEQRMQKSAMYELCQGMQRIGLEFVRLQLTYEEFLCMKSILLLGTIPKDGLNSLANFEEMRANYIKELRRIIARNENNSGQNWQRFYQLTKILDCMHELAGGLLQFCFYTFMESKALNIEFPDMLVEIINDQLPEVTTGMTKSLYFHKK
Source text: as §2

Row | SMILES | Emax [1] [%] | Emax [2] [%] | Emax (full-length chicken MR) [%] | Emax (full-length zebrafish MR) [%] | Emax [3] [%]
1 | CC(=O)[C@H]1CC[C@H]2[C@@H]3CCC4=CC(=O)CC[C@@H]4[C@H]3CC[C@]12C [19norProg] | 122 | 98 | 68 | 83 | 84
2 | C[C@]12CCC(=O)C=C1CC[C@@H]1[C@@H]2CC[C@@]2(C)[C@H]1CC[C@]2(O)C(=O)CO [S, 11-deoxycortisol] | – | 77 | – | – | 83
3 | C[C@]12CCC(=O)C=C1CC[C@@H]1[C@@H]2[C@@H](O)C[C@@]2(C)[C@H]1CC[C@]2(O)C(=O)CO [cortisol] | – | 79 | – | – | 114
4 | CC(=O)[C@H]1CC[C@H]2[C@@H]3CCC4=CC(=O)CC[C@]4(C)[C@H]3CC[C@]12C [Prog] | 122 | 40 | 62 | 77 | 43
5 | C[C@]12C[C@H](O)[C@H]3[C@@H](CCC4=CC(=O)CC[C@@]43C)[C@@H]1CC[C@@H]2C(=O)CO [B, corticosterone] | – | 90 | – | – | 101
6 | CC(=O)S[C@@H]1CC2=CC(=O)CC[C@]2(C)[C@H]2CC[C@@]3(C)[C@@H](CC[C@@]34CCC(=O)O4)[C@H]12 [Spiron] | – | 53 | 30 | 54 | 45
7 | C[C@]12CC[C@H]3[C@@H](CCC4=CC(=O)CC[C@@]43C)[C@@H]1CC[C@@H]2C(=O)CO [11-deoxycorticosterone] | – | 81 | – | – | 83
8 | CC(=O)[C@@]1(O)CC[C@H]2[C@@H]3CCC4=CC(=O)CC[C@]4(C)[C@H]3CC[C@@]21C [17OH-Prog] | – | 26 | 15 | 44 | 25
